One assay concerns the target ATM enzyme (human) (Homo sapiens, UniProt Q13315). Nature of the assay: ATM kinase assay (HTRF, GST-cMyc-p53 substrate). As to conditions: for inhibition at 0.01 µM / inhibition at 0.1 µM / inhibition at 1 µM: 0.5 h, read-out: Inh (%) of ATM kinase. Format: biochemical. On the procedure: In Vitro Inhibition of ATM by N,N-dimethyl-3-(4-(1-(tetrahydro-2H-pyran-4-yl)-[1,2,4]triazolo[4,3-a]quinoxalin-8-yl)phenoxy)propan-1-amine and its Analogues was Determined by ATM Kinase Assay
The reaction was initiated by the addition of a Mg/ATP mixture and incubation for 30 minutes at room temperature, the reaction was quenched by the addition of a stop solution containing EDTA. Finally, the detection buffer containing the d2-labeled anti-GST monoclonal antibody and the europium-labeled anti-phospho p53 (Ser15) antibody was added. The plate was then read in time resolved fluorescence mode and the homogeneous time resolved fluorescence (HTRF) signal was determined according to the equation: HTRF=10000×(Em665nm/Em620nm). Each compound sample was repeated in duplicate. The experiment negative control was all components except of the ATM enzyme and the positive control contained all components. All reactions were quenched by adding EDTA.
ATM kinase inhibition was detected by using the method described above. The curve equation for calculating IC50 value is as follows:
[formula] • wherein, C is the concentration of compound and D is the slope factor.

The test system of assay [1] is human colon cancer cell SW620. Kind of assay: MTT assay, growth of SW620 cells, compounds combined with CPT-11. The assay is classed as cell-based. As to conditions: combined with CPT-11 (205 nM medium), 5 days, MTT. As for the experimental part:
Inhibitory effects of N,N-dimethyl-3-(4-(1-(tetrahydro-2H-pyran-4-yl)-[1,2,4]triazolo[4,3-a]quinoxalin-8-yl)phenoxy)propan-1-amine and its Analogues Combined with CPT-11 on the Growth of Human Colon Cancer Cell SW620 were Determined by MTT Assay
(§1) SW620 cells were digested by trypsinase, centrifuged at 800 rpm for 5 minutes, the supernatant was discarded, resuspended with fresh medium (RPMI 1640 medium+10% FBS) and counted. The cells were seeded into 96-well cell culture plate with appropriate cell density and incubated overnight in a 37° C. 5% CO2 incubator. The stock solutions of the tested compound and the reference compound AZD0156 were serially diluted to 8 concentrations by DMSO at the ratios of 1:3 and 1:10, respectively, the first concentration was 10 μM or 1 μM, and the last concentration was negative control of DMSO (0 μM, the final concentration of DMSO was 1%). 5 μL of each concentration was added to 120 μL of medium (25 times diluted) and mixed by shaking. The overnight cells were taken and the culture medium was removed, 195 μL of fresh medium containing 205 nM CPT-11 was added to each well, and 5 μL of diluted medium containing the corresponding concentration of the tested sample was added respectively, and the culture plate was then placed in the 5% CO2 cell culture incubator at 37° C. for 5 days. After removing the original solution, 100 pt of fresh serum-free DMEM medium containing MTT (0.5 mg/mL) was added to each well, the culture was continued. After 4 hours, the original solution was removed, 100 μL of DMSO was added into each well, the 96-well plates were shaken away from light for 10 minutes and placed in a multi-function reader to read the absorbance at the wavelength of 552/630/690 nm. GraphPad Prism 6.0 was used to analyze the data. The inhibitory activity of compounds on cell proliferation was plotted based on cell viability and compound concentration. The IC50 value was fitted by a sigmoidal dose response curve equation Y=100/(1+10^(Log C−Log IC50)), where C was the concentration of compound.
Table 3 summarizes the inhibitory effects of compounds combined with CPT-11 on the growth of human colon cancer cell SW620 (IC50).

Assay [2] relates to human breast cancer cell MDA-MB-468. Nature of the assay: MTT assay, growth of MDA-MB-468 cells. As to conditions: 7 days, MTT. The assay is classed as cell-based. On the procedure:
Inhibitory Effects of N,N-dimethyl-3-(4-(1-(tetrahydro-2H-pyran-4-yl)-[1,2,4]triazolo[4,3-a]quinoxalin-8-yl)phenoxy)propan-1-amine and its Analogues on the Growth of Human Breast Cancer Cell MDA-MB-468 were Determined by MTT Assay
as §1, with “MDA-MB-468 cells” for “SW620 cells”, “1:10, respectively:” for “1:10, respectively,”, “was 100” for “was 10”, “medium” for “medium containing 205 nM CPT-11”, “for 7 days (On the fourth day, the medium containing drugs was removed and fresh medium containing drugs was added for continuous cultivation).” for “for 5 days.”, “100 μL” for “100 pt”
Table 4 summarizes the inhibitory effects of compounds on the growth of human breast cancer cell MDA-MB-468 (IC50).

Setting [3] is: C 0.01 μm (final concentration of compound).
Where [4] appears, read: C 0.1 μm (final concentration of compound).
The mark [5] stands for this setting: C 1 μm (final concentration of compound).
Setting [6] is: Homo sapiens, MDA-MB-468, 168 h.

Where only a bound is given, the exact number is not on record here.

Sequence of ATM enzyme (human) (Q13315 whole entry): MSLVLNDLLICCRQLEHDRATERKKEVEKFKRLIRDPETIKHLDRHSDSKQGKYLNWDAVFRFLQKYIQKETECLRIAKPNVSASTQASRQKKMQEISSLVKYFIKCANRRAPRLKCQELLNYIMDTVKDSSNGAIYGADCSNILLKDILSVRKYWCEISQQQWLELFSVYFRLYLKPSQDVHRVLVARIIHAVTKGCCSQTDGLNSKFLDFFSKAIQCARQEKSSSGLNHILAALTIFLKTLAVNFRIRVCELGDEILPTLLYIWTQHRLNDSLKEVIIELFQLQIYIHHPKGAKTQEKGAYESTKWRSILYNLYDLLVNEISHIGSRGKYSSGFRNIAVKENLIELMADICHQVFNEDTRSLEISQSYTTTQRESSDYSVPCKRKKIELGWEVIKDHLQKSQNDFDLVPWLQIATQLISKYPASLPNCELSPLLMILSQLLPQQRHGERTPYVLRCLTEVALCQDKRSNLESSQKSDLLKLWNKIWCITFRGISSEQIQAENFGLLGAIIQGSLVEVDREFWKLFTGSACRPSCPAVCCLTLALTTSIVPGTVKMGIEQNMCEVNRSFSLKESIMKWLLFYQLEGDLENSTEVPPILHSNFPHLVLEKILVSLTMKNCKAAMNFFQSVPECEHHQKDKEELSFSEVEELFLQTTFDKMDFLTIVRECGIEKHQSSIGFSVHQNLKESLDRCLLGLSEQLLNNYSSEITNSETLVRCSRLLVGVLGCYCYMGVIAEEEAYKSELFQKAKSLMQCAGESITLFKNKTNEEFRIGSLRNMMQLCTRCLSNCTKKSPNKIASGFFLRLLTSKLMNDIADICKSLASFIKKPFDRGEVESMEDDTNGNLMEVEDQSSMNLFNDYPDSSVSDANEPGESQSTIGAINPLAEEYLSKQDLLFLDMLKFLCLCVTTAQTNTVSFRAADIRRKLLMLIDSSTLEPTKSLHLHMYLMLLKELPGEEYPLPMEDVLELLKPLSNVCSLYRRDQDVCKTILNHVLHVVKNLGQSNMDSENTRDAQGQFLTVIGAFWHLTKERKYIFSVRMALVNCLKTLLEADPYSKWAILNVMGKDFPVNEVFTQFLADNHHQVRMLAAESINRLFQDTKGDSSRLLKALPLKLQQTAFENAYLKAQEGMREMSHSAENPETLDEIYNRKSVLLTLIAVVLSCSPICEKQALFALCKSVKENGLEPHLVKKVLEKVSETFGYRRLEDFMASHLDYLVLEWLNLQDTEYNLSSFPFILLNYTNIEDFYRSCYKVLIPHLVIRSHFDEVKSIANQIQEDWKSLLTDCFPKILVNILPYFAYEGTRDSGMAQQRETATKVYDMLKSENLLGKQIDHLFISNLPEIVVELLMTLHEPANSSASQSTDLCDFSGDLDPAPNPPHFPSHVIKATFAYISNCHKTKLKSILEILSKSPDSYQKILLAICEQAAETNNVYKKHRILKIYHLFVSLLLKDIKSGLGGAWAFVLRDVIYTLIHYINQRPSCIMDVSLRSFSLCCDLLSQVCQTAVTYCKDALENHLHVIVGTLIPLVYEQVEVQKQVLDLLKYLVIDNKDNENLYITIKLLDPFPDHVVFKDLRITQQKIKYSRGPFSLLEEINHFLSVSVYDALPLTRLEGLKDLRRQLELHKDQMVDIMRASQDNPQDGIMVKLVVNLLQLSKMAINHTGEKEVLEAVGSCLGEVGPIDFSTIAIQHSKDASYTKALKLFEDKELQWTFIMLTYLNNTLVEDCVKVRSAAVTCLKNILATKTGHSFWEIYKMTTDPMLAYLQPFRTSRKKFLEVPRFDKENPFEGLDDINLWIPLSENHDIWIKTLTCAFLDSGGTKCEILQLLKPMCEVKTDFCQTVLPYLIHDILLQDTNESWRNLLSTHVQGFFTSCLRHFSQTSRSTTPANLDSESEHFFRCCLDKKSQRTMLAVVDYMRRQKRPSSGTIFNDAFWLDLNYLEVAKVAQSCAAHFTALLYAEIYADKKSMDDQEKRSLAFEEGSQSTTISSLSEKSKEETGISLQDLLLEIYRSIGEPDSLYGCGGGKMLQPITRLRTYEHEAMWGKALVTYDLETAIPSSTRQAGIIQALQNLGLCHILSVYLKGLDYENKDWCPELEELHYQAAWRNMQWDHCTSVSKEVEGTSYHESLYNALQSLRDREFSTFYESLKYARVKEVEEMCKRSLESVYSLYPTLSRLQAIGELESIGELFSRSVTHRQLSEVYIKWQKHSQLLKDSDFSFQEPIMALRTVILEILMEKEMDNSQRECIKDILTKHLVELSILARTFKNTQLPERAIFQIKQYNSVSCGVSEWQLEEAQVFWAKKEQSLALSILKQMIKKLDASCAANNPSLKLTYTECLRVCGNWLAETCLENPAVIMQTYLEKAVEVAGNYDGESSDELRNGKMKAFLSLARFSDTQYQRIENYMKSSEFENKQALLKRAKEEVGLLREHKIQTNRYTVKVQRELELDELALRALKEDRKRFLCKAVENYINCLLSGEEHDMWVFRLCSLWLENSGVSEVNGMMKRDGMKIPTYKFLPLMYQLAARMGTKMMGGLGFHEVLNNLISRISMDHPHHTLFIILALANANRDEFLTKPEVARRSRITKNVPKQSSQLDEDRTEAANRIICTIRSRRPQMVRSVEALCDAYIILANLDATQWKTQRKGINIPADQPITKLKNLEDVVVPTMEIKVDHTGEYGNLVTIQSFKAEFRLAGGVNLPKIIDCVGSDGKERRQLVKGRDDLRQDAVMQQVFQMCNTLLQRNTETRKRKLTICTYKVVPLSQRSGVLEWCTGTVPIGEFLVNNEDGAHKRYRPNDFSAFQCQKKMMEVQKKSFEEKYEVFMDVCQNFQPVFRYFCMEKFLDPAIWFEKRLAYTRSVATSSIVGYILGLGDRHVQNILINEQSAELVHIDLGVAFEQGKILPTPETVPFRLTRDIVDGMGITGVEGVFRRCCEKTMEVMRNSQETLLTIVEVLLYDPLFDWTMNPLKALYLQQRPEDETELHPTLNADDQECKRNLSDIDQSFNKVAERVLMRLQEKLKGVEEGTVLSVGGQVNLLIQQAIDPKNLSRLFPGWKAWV

Regarding `CN(C)C1CCN(c2ccc(-c3ccc4ncc5nnc(C6CCOCC6)n5c4c3)cn2)CC1` [Example 15, N,N-dimethyl-1-(5-(1-(tetrahydro-2H-pyran-4-yl)-[1,2,4]triazolo[4,3-a]quinoxalin-8-yl)pyridin-2-yl)piperidin-4-amine], the inhibition at 0.01 µM at ATM enzyme (human) (setting [3]) amounted to 33%. In addition, the inhibition at 0.1 µM on ATM enzyme (human) (setting [4]) came to 80%. Moreover, the inhibition at 1 µM at ATM enzyme (human) (setting [5]) came out at 98%. In assay [1] (Homo sapiens, SW-620, 120 h), the concentration for half-maximal inhibition (IC50) (usually the concentration at which inhibition is half-maximal) was 485 nM.

`c1ccc(-c2ccc3ncc4nnc(C5CCOCC5)n4c3c2)cc1` [Example 39, 8-phenyl-1-(tetrahydro-2H-pyran-4-yl)-[1,2,4]triazolo[4,3-a]quinoxaline]: the inhibition at 1 µM at ATM enzyme (human) (setting [5]) amounted to 62%. Moreover, the IC50 in assay [1] (Homo sapiens, SW-620, 120 h) was above 100000 nM.

Regarding `C[N+](C)(C)CCCNc1ccc(-c2ccc3ncc4nnc(C5CCOCC5)n4c3c2)cc1` [Example 40, N,N,N-trimethyl-3-((4-(1-(tetrahydro-2H-pyran-4-yl)-[1,2,4]triazolo[4,3-a]quinoxalin-8-yl)phenyl)amino)propan-1-aminium], the “Inh (%) of ATM kinase” value is reported as 33% on ATM enzyme (human) (setting [3]), 81% at ATM enzyme (human) (setting [4]) and 99% on ATM enzyme (human) (setting [5]). Besides, the IC50 in assay [1] is above 100000 nM.

With `NC1CCN(c2ccc(-c3ccc4ncc5nnc(C6CCOCC6)n5c4c3)cc2)CC1` [Example 41, 1-(4-(1-(tetrahydro-2H-pyran-4-yl)-[1,2,4]triazolo[4,3-a]quinoxalin-8-yl)phenyl)piperidin-4-amine], the inhibition at 0.01 µM at ATM enzyme (human) (setting [3]) came out at 33%. Also, on ATM enzyme (human) (setting [4]), the inhibition at 0.1 µM turned out to be 81%. The inhibition at 1 µM on ATM enzyme (human) (setting [5]) is 99%. Moreover, the IC50 in assay [1] (Homo sapiens, SW-620, 120 h) came out at 456 nM.

With `CNC1CCN(c2ccc(-c3ccc4ncc5nnc(C6CCOCC6)n5c4c3)cc2)CC1` [Example 42, N-methyl-1-(4-(1-(tetrahydro-2H-pyran-4-yl)-[1,2,4]triazolo[4,3-a]quinoxalin-8-yl)phenyl)piperidin-4-amine], the inhibition at 0.01 µM on ATM enzyme (human) (setting [3]) stood at 68%. Besides, the inhibition at 0.1 µM on ATM enzyme (human) (setting [4]) turned out to be 90%. Moreover, on ATM enzyme (human) (setting [5]), the inhibition at 1 µM was 99%. In assay [1] (Homo sapiens, SW-620, 120 h), the half-inhibitory concentration (IC50) was determined as 211 nM.

Turning to `CCNC1CCN(c2ccc(-c3ccc4ncc5nnc(C6CCOCC6)n5c4c3)cc2)CC1` [Example 43, N-ethyl-1-(4-(1-(tetrahydro-2H-pyran-4-yl)-[1,2,4]triazolo[4,3-a]quinoxalin-8-yl)phenyl)piperidin-4-amine], on ATM enzyme (human) (setting [3]), the inhibition at 0.01 µM is 47%. Further, at ATM enzyme (human) (setting [4]), the inhibition at 0.1 µM turned out to be 89%. For the same compound, the inhibition at 1 µM at ATM enzyme (human) (setting [5]) worked out at 100%. The concentration for half-maximal inhibition (IC50) in assay [1] (Homo sapiens, SW-620, 120 h) was 357 nM.

For the compound `C[C@@H]1CN(c2nnc3cnc4ccc(-c5ccc(N6CCC(N(C)C)CC6)c(F)c5)cc4n23)C[C@H](C)N1C` [Example 59, 1-(2-fluoro-4-(1-((3S,5R)-3,4,5-trimethylpiperazin-1-yl)-[1,2,4]triazolo[4,3-a]quinoxalin-8-yl)phenyl)-N,N-dimethylpiperidin-4-amine], the IC50 in assay [1] (Homo sapiens, SW-620, 120 h) is 14.4 nM; in assay [2] (setting [6]), 6.61 nM.

In the case of `CN(C)C1CCN(c2ccc(-c3ccc4ncc5nnc(CN6CCOCC6)n5c4c3)cc2)CC1` [Example 65, N,N-dimethyl-1-(4-(1-(morpholinomethyl)-[1,2,4]triazolo[4,3-a]quinoxalin-8-yl)phenyl)piperidin-4-amine], the inhibition at 0.01 µM on ATM enzyme (human) (setting [3]) was 37%. In addition, at ATM enzyme (human) (setting [4]), the inhibition at 0.1 µM came to 80%. In addition, the inhibition at 1 µM on ATM enzyme (human) (setting [5]) was found to be 100%. Besides, the concentration for half-maximal inhibition (IC50) in assay [1] (Homo sapiens, SW-620, 120 h) turned out to be 402 nM.

On to `CN(C)CCCOc1ccc(-c2cc3c(cn2)ncc2nnc(C4CCOCC4)n23)cc1` [Example 69, N,N-dimethyl-3-(4-(1-(tetrahydro-2H-pyran-4-yl)pyrido[3,4-e][1,2,4]triazolo[4,3-a]pyrazin-8-yl)phenoxy)propan-1-amine], for which the half-maximal inhibitory concentration (IC50) in assay [2] was above 10000 nM.

For `CN(C)C1CCN(c2ccc(-c3ccc4ncc5nnc(CN6CCOCC6)n5c4n3)cc2)CC1` [Example 78, N,N-dimethyl-1-(4-(9-(morpholinomethyl)pyrido[3,2-e][1,2,4]triazolo[4,3-a]pyrazin-2-yl)phenyl)piperidin-4-amine], the inhibition at 0.01 µM on ATM enzyme (human) (setting [3]) turned out to be 67%. Also, at ATM enzyme (human) (setting [4]), the inhibition at 0.1 µM was found to be 94%. The inhibition at 1 µM on ATM enzyme (human) (setting [5]) is 98%. The 50% inhibitory concentration (IC50) in assay [1] (Homo sapiens, SW-620, 120 h) was found to be 664 nM.

Take `CN(C)CCCOc1ccc(-c2ccc3ncc4nnc(CN5CCOCC5)n4c3n2)cc1` [Example 79, N,N-dimethyl-3-(4-(9-(morpholinomethyl)pyrido[3,2-e][1,2,4]triazolo[4,3-a]pyrazin-2-yl)phenoxy)propan-1-amine]: the inhibition at 0.01 µM at ATM enzyme (human) (setting [3]) is 21%. Besides, the inhibition at 0.1 µM on ATM enzyme (human) (setting [4]) was 62%. The inhibition at 1 µM on ATM enzyme (human) (setting [5]) was 94%. Further, the half-maximal inhibitory concentration (IC50) in assay [1] (Homo sapiens, SW-620, 120 h) was found to be 1980 nM.

As to `C[C@@H]1CN(c2nnc3cnc4ccc(-c5ccc(OCCCN(C)C)cc5)nc4n23)C[C@H](C)N1C` [Example 80, N,N-dimethyl-3-(4-(9-((3S,5R)-3,4,5-trimethylpiperazin-1-yl)pyrido[3,2-e][1,2,4]triazolo[4,3-a]pyrazin-2-yl)phenoxy)propan-1-amine], the IC50 was found to be 164 nM in assay [1] (Homo sapiens, SW-620, 120 h) and 271 nM in assay [2] (setting [6]).

For `C[C@@H]1CN(c2nnc3cnc4ccc(-c5ccc(OCCCN(C)C)c(F)c5)nc4n23)C[C@H](C)N1C` [Example 81, 3-(2-fluoro-4-(9-((3S,5R)-3,4,5-trimethylpiperazin-1-yl)pyrido[3,2-e][1,2,4]triazolo[4,3-a]pyrazin-2-yl)phenoxy)-N,N-dimethylpropan-1-amine], the IC50 in assay [1] (Homo sapiens, SW-620, 120 h) turned out to be 138 nM; in assay [2] (setting [6]), 201 nM.

Regarding `C[C@@H]1CN(c2nnc3cnc4ccc(-c5ccc(OCCCN(C)C)c(Cl)c5)nc4n23)C[C@H](C)N1C` [Example 82, 3-(2-chloro-4-(9-((3S,5R)-3,4,5-trimethylpiperazin-1-yl)pyrido[3,2-e][1,2,4]triazolo[4,3-a]pyrazin-2-yl)phenoxy)-N,N-dimethylpropan-1-amine], the half-inhibitory concentration (IC50) in assay [1] (Homo sapiens, SW-620, 120 h) is 189 nM; in assay [2] (setting [6]), 200 nM.

For the origin of these results see patent US10874670B2, “Substituted fused heteroaromatic compounds as kinase inhibitors and the use thereof” (IMPACT THERAPEUTICS, INC., priority 2017, dated 2020).
